Calls of active or inactive are those of the source. The rule behind the calls is not given here.

In data set [1] the test system is CCRF-CEM. Briefly: Cytotoxicity against human CCRF-CEM cells after 72 hrs by XTT assay. In kind it is functional, cell-based. To be noted: read-out: IC50. In general terms: Tetrazolium dyes change colour on reduction, which living cells bring about.
The subject of data set [2] is CCRF-CEM. Briefly: Cytotoxicity against vinblastine-resistant human CCRF-CEM cells after 72 hrs by XTT assay. In kind it is functional, cell-based.
Data set [3] concerns CCRF-CEM. Kind of data set: Ratio of IC50 for taxol-resistant human CCRF-CEM cells to IC50 for human CCRF-CEM cells. In kind it is functional.
Data set [4] relates to CCRF-CEM. Kind of data set: Ratio of IC50 for vinblastine-resistant human CCRF-CEM cells to IC50 for human CCRF-CEM cells. In kind it is functional.
For data set [5], the system named is MX1. Briefly: Cytotoxicity against human MX1 cells after 72 hrs by SRB assay. It is filed as functional, cell-based. To be noted: MX1, 72 h. On the technique in general: Sulforhodamine B stains cellular protein and so reports cell mass.
Data set [6] deals with HCT-116. Briefly: Cytotoxicity against human HCT116 cells after 72 hrs by SRB assay. To be noted: HCT-116, 72 h. In kind it is functional, cell-based.
A short description of data set [7]: Cytotoxicity against human H1299 cells after 72 hrs by WST1 assay. It is filed as functional, cell-based. To be noted: NCI-H1299, 72 h.
In a further data set the test system is PC-3. Kind of data set: Cytotoxicity against human PC3 cells after 72 hrs by WST1 assay. Particulars: PC-3, 72 h. It is filed as functional, cell-based.
Data set [8] is described as follows: Cytotoxicity against human CL1-0 cells after 72 hrs by WST1 assay. Particulars: CL1-0, 72 h. In kind it is functional, cell-based.
The nature of data set [9]: Cytotoxicity against human CL1-5 cells after 72 hrs by WST1 assay. In kind it is functional, cell-based. To be noted: CL1-5, 72 h.
The test system of the next data set is MCF7. Briefly: Cytotoxicity against human MCF7 cells after 72 hrs by WST1 assay. It is filed as functional, cell-based. Particulars: MCF7, 72 h.
The subject of data set [10] is MX1. Kind of data set: Antitumor activity against human MX1 cells xenografted in athymic nude mouse assessed as total tumor remission at 50 mg/kg, iv administered q2d for 5 days measured after 12 days. In kind it is functional, organism-based. Further details: dose 50 mg/kg.
The test system of data set [11] is MX1. Kind of data set: Antitumor activity against human MX1 cells xenografted in athymic nude mouse assessed as total tumor remission at 50 mg/kg, iv administered q2d for 5 days measured after 20 days. It is filed as functional, organism-based. Further details: dose 50 mg/kg. On the technique in general: In xenograft studies the graft and the host belong to different species.

In data set [12] the test system is MX1. Briefly: Antitumor activity against human MX1 cells xenografted in athymic nude mouse assessed as no tumor relapse at 50 mg/kg, iv administered q2d for 5 days measured after 129 days. It is filed as functional, organism-based. Further details: dose 50 mg/kg.
For data set [13], the system named is HCT-116. Kind of data set: Antitumor activity against human HCT116 cells xenografted in athymic nude mouse assessed as tumor growth inhibition at 50 mg/kg, iv administered q2d for 7 days. It is filed as functional. Further details: scale not given: the % may be the effect or the level left.
The test system of the next data set is Mus musculus. Briefly: Toxicity in athymic nude mouse xenografted with human HCT116 cells assessed as body weight loss at 50 mg/kg, iv administered q2d for 7 days. The arrangement: dose 50 mg/kg, route intravenous. In kind it is organism-based, HCT-116. Particulars: in vivo, 168 h.
Data set [14] has as its system H1299. Kind of data set: Induction of DNA interstrand cross-linking in 20 Gy irradiated human H1299 cells after 1 hr by comet assay. It is filed as cell-based.
Data set [15] concerns CCRF-CEM. Kind of data set: Cytotoxicity against taxol-resistant human CCRF-CEM cells after 72 hrs by XTT assay. It is filed as functional, cell-based.
The test system of data set [16] is H1299. Briefly: Induction of DNA interstrand cross-linking in 20 Gy irradiated human H1299 cells at 10 uM after 1 hr by comet assay. It is filed as cell-based.
Data set [17] has as its system H1299. Briefly: Induction of DNA interstrand cross-linking in 20 Gy irradiated human H1299 cells at 200 uM after 1 hr by comet assay. It is filed as cell-based.
Data set [18] deals with H1299. Kind of data set: Induction of DNA interstrand cross-linking in 20 Gy irradiated human H1299 cells assessed as decrease in DNA migration after 1 hr by comet assay. It is filed as cell-based.
A short description of data set [19]: Stability in rat plasma assessed as half life at 5 ug/ml after 10 mins by HPLC. In kind it is ADME, cell-free.

As usually defined, the IC50 is the concentration needed to halve the response being measured. One may read the half-life as the time in which the quantity being followed falls by half. Turning to `O=C(Nc1cc(CO)cc(Nc2c3ccccc3nc3ccccc23)c1)Oc1ccc(N(CCCl)CCCl)cc1`, the IC50 is 0.075 µM in the data set with CCRF-CEM [1]; 0.184 µM in the data set with CCRF-CEM [2]; 0.099 µM with MX1 [5]; 0.568 µM with HCT-116 [6]; 0.284 µM in data set [7]; 1.61 µM in the data set with PC-3. The IC50 was 2.69 µM in [8], 5.06 µM in data set [9], 4.8 µM in the data set on MCF7 and 0.14 µM in the data set on CCRF-CEM [15]. Further, the “Ratio IC50” value with CCRF-CEM [3] is given as 1.9; in the data set on CCRF-CEM [4], 2.5. In addition, the outcome in the data set with MX1 [10], in the data set with MX1 [11] and in the data set with MX1 [12] was Active. Also, the Activity was 98% in the data set on HCT-116 [13]; 8% with Mus musculus; “Dose-dependent effect” in the data set on H1299 [14]; 74.2% with H1299 [16]; 39.7% in the data set on H1299 [17]; “Dose-dependent effect” in the data set with H1299 [18]. Moreover, in data set [19], the half-life at 5 ug/ml was 6.41 h.

For the origin of these results see ChEMBL document CHEMBL1143344, “Novel DNA-directed alkylating agents: design, synthesis and potent antitumor effect of phenyl N-mustard-9-anilinoacridine conjugates via a carbamate or carbonate linker” (Bioorg Med Chem, 2009).
